{"source": "paper PMC9180621", "about": "“Preparation of Novel Pyrazolo[4,3-e]tetrazolo[1,5-b][1,2,4]triazine Sulfonamides and Their Experimental and Computational Biological Studies” (International Journal of Molecular Sciences, 2022)", "key": {"BxPC-3 cells [1]": {"tested_on": "BxPC-3 cells", "test": "MTT assay, cell viability", "type": "cell-based", "details": "Homo sapiens, BxPC-3, 72 h incubation, ± SD", "method": "(§1) A statistical program (Graphpad Prism 7) was used to analyze obtained data (MTT test). The dose–response analysis was performed to estimate the inhibitory concentration (IC50) of the tested compounds. The IC50 value is defined as a concentration of the tested compound that leads to a reduction in cell pool viability by 50% compared to the negative control (accepted as 100%). % cell viability=Absorbance value of treated cells−Absorbance value of blank/Absorbance value of untreated cells−Absorbance value of blank×100%\n(§2) To estimate cell viability following 72 h incubation with the tested MM-compounds (MM134, MM136, MM137, and MM139), the MTT test was used according to the PN-EN ISO 10993-5. It is a quantitative method based on the tetrazolium yellow dye MTT [3(4,5-dimethyl-2-thiazolyl)-2,5-diphenyl-2H-tetrazolium bromide], which is converted by living cells to a purple product, formazan, the concentration of which was measured colorimetrically. The MTT assay was performed according to the procedure described by Mosmann with modifications. At a density of approximately 8 × 10^3 cells per 100 µL/well, 96-well plates were seeded. Following the given incubation period in controlled conditions (37 °C; 5% CO2), cells were exposed to different concentrations of tested compounds in DMSO (range 0.05–3 µM) in a volume of 100 µL medium per well. Final solvent concentration of DMSO was < 0.5% v/v. The experimental design included vehicle controls and blanks (wells without cells).\n(§3) After 72 h of incubation of cells with tested MM-compounds, 20 µL of MTT tetrazolium salt (5 mg/mL in PBS) was added to each well, and plates were incubated once again in a humidified atmosphere for 3 h (37 °C; 5% CO2). Following the incubation time, the solutions were removed and 100 µL of DMSO was added to dissolve the formazan complexes. Subsequently, a spectrophotometer (microplate reader Power Wave XS BioTek Instruments, Inc., Winooski, VT, USA) reading was performed at 570 nm. The experiments were performed in duplicates."}, "HCT-116 cells": {"tested_on": "HCT-116 cells", "test": "MTT assay, cell viability", "type": "cell-based", "details": "Homo sapiens, HCT-116, 72 h incubation, ± SD", "method": "as §1, §2, §3"}, "L929 cells": {"tested_on": "L929 cells", "test": "MTT assay, cell viability", "type": "cell-based", "details": "L929 normal mouse fibroblasts, 72 h incubation, ± SD", "method": "as §1, §2, §3"}, "WI-38 cells": {"tested_on": "WI-38 cells", "test": "MTT assay, cell viability", "type": "cell-based", "details": "WI-38 normal human fibroblasts, 72 h incubation, ± SD", "method": "as §1, §2, §3"}, "PC-3 cells [2]": {"tested_on": "PC-3 cells", "test": "MTT assay, cell viability", "type": "cell-based, human", "details": "Homo sapiens; PC-3, 72 h incubation, MTT, ± SD", "method": "as §1, §2, §3"}, "BxPC-3 cells [3]": {"tested_on": "BxPC-3 cells", "test": "Annexin V-FITC/propidium iodide flow cytometry, apoptosis", "type": "cell-based, human", "details": "IC50 concentration, Annexin V-FITC, ± SD", "method": "Data are presented as mean percentage of apoptotic cells (early and late apoptotic) ± SD values. The differences between the experimental samples and vehicle control were evaluated by the ANOVA test followed by Tukey’s test (p < 0.05). Experiments were performed in triplicate. For flow cytometry analysis with Annexin V-FITC staining, the approximate number of analyzed cells was (N = 1 × 10^4), contrasting with the dual acridine orange/ethidium bromide (AO/EB) fluorescent staining (N = 200).\nThe Annexin V-FITC Apoptosis Detection Kit was used to estimate the apoptosis induction following 24 and 48 h incubation with the tested MM-compounds. During apoptosis, phosphatidylserine is transformed from the inner cell membrane to the cell surface, which can be detected by the annexin-FITC complex. The addition of propidium iodide to the reaction mixture allows the assessment of cell membrane integrity. Using flow cytometry analysis, four subpopulations of cells can be distinguished: alive (non-stained), necrotic (propidium iodide stained), early apoptotic (annexin V stained cells), or late-apoptotic cells (propidium iodide and annexin V stained). BxPC-3 and PC-3 cells were seeded at appropriate density on a 6-well plate (Table 9).\nThe experimental design included vehicle control (final solvent concentration was < 0.5% v/v DMSO), and cells treated with 2 µM SN-38 (active metabolite of irinotecan) used as a positive compensation control. Cells were left for incubation for another 24 or 48 h (37 °C; 5% CO2). After exposure, cells were trypsinized and transferred to cytometric tubes, left for 40 min, and centrifuged at 1400 rpm for 10 min at 4 °C. Afterward, the supernatant was removed, and the precipitate was diluted in 1 mL of PBS. The rest of the procedure was performed according to the manufacturer’s instructions. The results were obtained from three independent experiments."}, "BxPC-3 cells [4]": {"tested_on": "BxPC-3 cells", "test": "Dual acridine orange/ethidium bromide (AO/EB) fluorescent staining, apoptosis", "type": "cell-based, human", "details": "BxPC-3, IC50 concentration, 24 h incubation", "method": "(§4) Data are presented as mean percentage of apoptotic cells (early and late apoptotic) ± SD values. The differences between the experimental samples and vehicle control were evaluated by the ANOVA test followed by Tukey’s test (p < 0.05). Experiments were performed in triplicate. For flow cytometry analysis with Annexin V-FITC staining, the approximate number of analyzed cells was (N = 1 × 10^4), contrasting with the dual acridine orange/ethidium bromide (AO/EB) fluorescent staining (N = 200). Acridine orange/ethidium bromide (AO/EB) staining is used to detect nuclear alterations and the development of apoptotic bodies, which are both indicative of apoptosis. Acridine orange penetrates into living cells, emitting green fluorescence after intercalation into DNA. The second dye, ethidium bromide, emits red fluorescence in cells with an altered cell membrane. The cells are divided into three categories as follows: living cells (green nucleus with red orange cytoplasm); apoptotic (green irregularly nuclei with chromatin condensation or fragmentation); and necrotic cells (uniformly orange-stained cell nuclei). Programmed cell death is measured by counting the number of cells that undergo apoptosis under a fluorescent microscope. BxPC-3 and PC-3 cells were seeded at an appropriate density on 12-well plates (Table 9). […] Following the incubation period, cells were incubated with fluorochromes (AO/EB: 100 µM; 1:1, v/v) for 5 min at 37 °C in the dark. Viable, apoptotic, or necrotic cells were distinguished using this method based on differential uptake of fluorescent DNA-binding dyes (AO/EB) with the structural aspect of chromatin condensation in the stained nucleus. Cells were analyzed using a fluorescence microscope (Olympus BX60 F5 Olympus Optical Co., Ltd., Nagano, Japan) at 360 nm. The results were obtained from three independent experiments."}, "PC-3 cells [5]": {"tested_on": "PC-3 cells", "test": "Dual acridine orange/ethidium bromide (AO/EB) fluorescent staining, apoptosis", "type": "cell-based, human", "details": "PC-3, 48 h incubation, 2xIC50 concentration, AO/EB, ± SD; control 1.5 ± 0.7%", "method": "as §4"}, "BxPC-3 cells [6]": {"tested_on": "BxPC-3 cells", "test": "MitoTracker Red, mitochondria membrane potential", "type": "cell-based, human", "method": "(§5) The fitness of the mitochondria and changes in MMP were assessed using MitoTracker Red. Data for experimental groups were presented as mean percentage of control group fluorescence intensity ± SD value (Figure 11, Table 2). Mitotracker Red is deposited in the mitochondrial matrix in response to changes in the inner transmembrane potential of the mitochondria. The intensity of fluorescence reflects the fitness of the mitochondria and alters with changes in MMP [91]. BxPC-3 and PC-3 cells were seeded at appropriate density on a 96-well plates (Table 9). […] After appropriate incubation time, cells were incubated with MitoTracker Red (0.1 µM/200 µL PBS/well) for 40 min. Afterward, MitoTracker Red solution was removed from the wells and PBS (200 µL/well) was added. Fluorescence was read at an […] of 581/644 nm using the SpectraMax® i3x Multi-Mode Detection Platform."}, "PC-3 cells [7]": {"tested_on": "PC-3 cells", "test": "MitoTracker Red, mitochondria membrane potential", "type": "cell-based, human", "method": "as §5"}}, "data": [{"smiles": "Cc1nn(-c2ccc(S(=O)(=O)N3CCOCC3)cc2)c2nn3nnnc3nc12", "note": "[MM136]", "values": [{"measurement": "IC50", "setting": "BxPC-3 cells [1]", "value": "250 ± 80", "unit": "nM"}, {"measurement": "IC50", "setting": "HCT-116 cells", "value": "250 ± 70", "unit": "nM"}, {"measurement": "IC50", "setting": "L929 cells", "value": "220 ± 80", "unit": "nM"}, {"measurement": "IC50", "setting": "WI-38 cells", "value": "480 ± 90", "unit": "nM"}, {"measurement": "IC50", "setting": "PC-3 cells [2]", "value": "130 ± 10", "unit": "nM"}, {"measurement": "mean percentage of apoptotic cells (early and late apoptotic)", "setting": "BxPC-3 cells [3]; BxPC-3, 24 h incubation, control 10.3 ± 2.09%", "value": "41.7 ± 0.17", "unit": "%"}, {"measurement": "mean percentage of apoptotic cells (early and late apoptotic)", "setting": "BxPC-3 cells [3]; BxPC-3, 48 h incubation, control 8.3 ± 1.13%", "value": "56.33 ± 4.96", "unit": "%"}, {"measurement": "increase in apoptotic fraction", "setting": "BxPC-3 cells [4]", "value": "did not induce a significant increase"}, {"measurement": "mean % of apoptotic cells", "setting": "PC-3 cells [5]", "value": "14.5 ± 0.7", "unit": "%"}, {"measurement": "mean percentage of control group fluorescence intensity (MMP)", "setting": "BxPC-3 cells [6]; BxPC-3, 24 h incubation, 0.5IC50, ± SD", "value": "82.83 ± 13.02", "unit": "%"}, {"measurement": "mean percentage of control group fluorescence intensity (MMP)", "setting": "BxPC-3 cells [6]; BxPC-3, 24 h incubation, 2xIC50, ± SD", "value": "57.67 ± 5.56", "unit": "%"}, {"measurement": "mean percentage of control group fluorescence intensity (MMP)", "setting": "BxPC-3 cells [6]; BxPC-3, 24 h incubation, IC50, ± SD", "value": "65.68 ± 4.58", "unit": "%"}, {"measurement": "mean percentage of control group fluorescence intensity (MMP)", "setting": "BxPC-3 cells [6]; BxPC-3, 48 h incubation, 0.5IC50, ± SD", "value": "69.08 ± 4.40", "unit": "%"}, {"measurement": "mean percentage of control group fluorescence intensity (MMP)", "setting": "BxPC-3 cells [6]; BxPC-3, 48 h incubation, 2xIC50, ± SD", "value": "61.83 ± 0.46", "unit": "%"}, {"measurement": "mean percentage of control group fluorescence intensity (MMP)", "setting": "BxPC-3 cells [6]; BxPC-3, 48 h incubation, IC50, ± SD", "value": "62.37 ± 0.05", "unit": "%"}, {"measurement": "mean percentage of control group fluorescence intensity (MMP)", "setting": "PC-3 cells [7]; PC-3, 24 h incubation, 0.5IC50, ± SD", "value": "96.3 ± 5.74", "unit": "%"}, {"measurement": "mean percentage of control group fluorescence intensity (MMP)", "setting": "PC-3 cells [7]; PC-3, 24 h incubation, 2xIC50, ± SD", "value": "86.9 ± 7.22", "unit": "%"}, {"measurement": "mean percentage of control group fluorescence intensity (MMP)", "setting": "PC-3 cells [7]; PC-3, 24 h incubation, IC50, ± SD", "value": "92.78 ± 0.9", "unit": "%"}, {"measurement": "mean percentage of control group fluorescence intensity (MMP)", "setting": "PC-3 cells [7]; PC-3, 48 h incubation, 0.5IC50, ± SD", "value": "81.34 ± 0.4", "unit": "%"}, {"measurement": "mean percentage of control group fluorescence intensity (MMP)", "setting": "PC-3 cells [7]; PC-3, 48 h incubation, 2xIC50, ± SD", "value": "47.38 ± 2.74", "unit": "%"}, {"measurement": "mean percentage of control group fluorescence intensity (MMP)", "setting": "PC-3 cells [7]; PC-3, 48 h incubation, IC50, ± SD", "value": "61.24 ± 3.62", "unit": "%"}]}]}
